Assay results from ChEMBL document CHEMBL1148864, “Design of LFA-1 antagonists based on a 2,3-dihydro-1H-pyrrolizin-5(7aH)-one scaffold” (Bioorg Med Chem Lett, 2007).

Legend:
[1] = species: Homo sapiens; settings: 1 uM
[2] = species: Homo sapiens; settings: 10 uM

Row | Compound | inhibition [1] [%] | inhibition [2] [%]
1 | N#Cc1ccc(C[C@@]23CCCN2C(=O)C(c2cc(Cl)cc(Cl)c2)=C3O)cc1 | 27 | –
2 | O=C1C(c2cc(Cl)cc(Cl)c2)=C(c2cc[nH]n2)[C@]2(Cc3ccc(Br)cc3)CCCN12 | – | 30
